Data as given in the supplement of paper PMC10307832.

Experiments:
Assay in all cases: relative viability (nuclei count vs DMSO), 5 days (fraction); higher = more cells survive
PAC-1 + Linsitinib = compound: C=CCc1cccc(/C=N/NC(=O)CN2CCN(Cc3ccccc3)CC2)c1O [PAC-1] + C[C@]1(O)C[C@@H](c2nc(-c3ccc4ccc(-c5ccccc5)nc4c3)c3c(N)nccn32)C1 [Linsitinib] (partner 1 µM)
Procedure, shortened: (§1)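 Relative viability divides the nuclei count in treated wells by that in vehicle wells. Lung cancer cell lines were seeded in 1536-well plates, dosed by pin tool the next day, and fixed and stained after 5 days in one step with final 0.05% Triton X-100, 1% formaldehyde and 1 ug/ml Hoechst. Dosing was a single drug or a fixed anchor-drug dose plus five library-drug doses (not always all listed) in √10 steps, and values are medians of duplicate plates imaged at 4×.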

Ibrutinib + Dasatinib = compound: C=CC(=O)N1CCC[C@@H](n2nc(-c3ccc(Oc4ccccc4)cc3)c3c(N)ncnc32)C1 [Ibrutinib] + Cc1nc(Nc2ncc(C(=O)Nc3c(C)cccc3Cl)s2)cc(N2CCN(CCO)CC2)n1 [Dasatinib] (partner 0.075 µM)
Procedure, shortened: as §1

Ibrutinib + Navitoclax = compound: C=CC(=O)N1CCC[C@@H](n2nc(-c3ccc(Oc4ccccc4)cc3)c3c(N)ncnc32)C1 [Ibrutinib] + CC1(C)CCC(c2ccc(Cl)cc2)=C(CN2CCN(c3ccc(C(=O)NS(=O)(=O)c4ccc(N[C@H](CCN5CCOCC5)CSc5ccccc5)c(S(=O)(=O)C(F)(F)F)c4)cc3)CC2)C1 [Navitoclax] (partner 0.5 µM)
Procedure, shortened: as §1

BMX-IN-1 + OSI-027 = compound: C=CC(=O)Nc1cc(-n2c(=O)ccc3cnc4ccc(-c5ccc(NS(C)(=O)=O)cc5)cc4c32)ccc1C [BMX-IN-1] + COc1cccc2cc(-c3nc([C@H]4CC[C@H](C(=O)O)CC4)n4ncnc(N)c34)[nH]c12 [OSI-027] (partner 0.5 µM)
Procedure, shortened: as §1

Cell Line | relative viability (PAC-1 + Linsitinib; first compound 0.02 µM) | relative viability (PAC-1 + Linsitinib; first compound 0.06325 µM) | relative viability (PAC-1 + Linsitinib; first compound 0.2 µM) | relative viability (PAC-1 + Linsitinib; first compound 2 µM) | relative viability (Ibrutinib + Dasatinib; first compound 0.005 µM) | relative viability (Ibrutinib + Dasatinib; first compound 0.01581 µM) | relative viability (Ibrutinib + Dasatinib; first compound 0.05 µM) | relative viability (Ibrutinib + Dasatinib; first compound 0.1581 µM) | relative viability (Ibrutinib + Dasatinib; first compound 0.5 µM) | relative viability (Ibrutinib + Navitoclax; first compound 0.005 µM) | relative viability (Ibrutinib + Navitoclax; first compound 0.01581 µM) | relative viability (Ibrutinib + Navitoclax; first compound 0.05 µM) | relative viability (Ibrutinib + Navitoclax; first compound 0.1581 µM) | relative viability (Ibrutinib + Navitoclax; first compound 0.5 µM) | relative viability (BMX-IN-1 + OSI-027; first compound 0.02 µM) | relative viability (BMX-IN-1 + OSI-027; first compound 0.2 µM) | relative viability (BMX-IN-1 + OSI-027; first compound 0.6325 µM) | relative viability (BMX-IN-1 + OSI-027; first compound 2 µM)
LC-2-ad | 0.849 | 0.825 | 0.782 | 0.78 | 0.315 | 0.608 | 0.637 | 0.49 | 0.565 | 0.408 | 0.362 | 0.535 | 0.477 | 0.402 | 0.872 | 0.918 | 0.768 | 0.841
NCI-H596 | 0.891 | 0.977 | 1.08 | 1.03 |  | 0.545 | 0.579 | 0.5 | 0.564 | 0.924 | 0.867 | 0.852 | 0.962 | 0.681 | 0.924 | 0.856 | 0.781 | 0.81
A-427 | 1.14 | 1.14 | 1.15 | 1.08 | 0.625 | 0.677 | 0.769 | 0.666 | 0.655 | 0.861 | 0.923 | 0.985 | 0.98 | 0.92 | 0.448 | 0.417 | 0.501 | 0.461
HCC-827 | 0.981 | 0.966 | 0.932 | 0.942 | 0.358 | 0.277 | 0.206 | 0.262 | 0.143 | 1.01 | 0.995 | 1.08 | 1.04 | 0.434 | 0.785 | 0.968 | 0.828 | 0.778
NCI-H1915 | 1.09 | 1.09 | 1.02 | 1.07 | 0.287 | 0.292 | 0.288 | 0.319 | 0.369 |  | 0.767 | 0.799 | 0.793 | 0.795 | 0.647 | 0.714 | 0.805 | 0.619
NCI-H322M | 0.907 | 0.889 | 0.817 | 0.928 | 0.218 | 0.236 | 0.242 | 0.241 | 0.238 | 1.21 | 1.18 | 1.26 | 1.25 | 0.724 | 0.581 | 0.534 | 0.618 | 0.502
EKVX | 1.03 | 1.02 | 0.941 | 0.917 | 0.525 | 0.455 | 0.481 | 0.489 | 0.352 | 0.868 | 0.96 | 0.915 | 0.806 | 0.485 | 0.848 | 0.689 | 0.783 | 0.663
EMC-BAC-2 | 0.8 | 0.815 | 0.825 | 0.82 | 0.314 | 0.316 | 0.346 | 0.343 | 0.296 | 1.16 | 1.06 | 1.01 | 1.16 | 1.02 | 0.363 | 0.363 | 0.421 | 0.403
HCC-15 | 0.967 | 0.876 | 0.795 | 0.935 | 0.678 | 0.615 | 0.637 | 0.51 | 0.66 | 0.741 | 0.62 | 0.701 | 0.727 | 0.673 | 0.801 | 0.708 | 0.698 | 0.583
LXF-289 | 0.972 | 0.992 | 0.946 | 0.909 | 0.26 | 0.14 | 0.275 | 0.325 | 0.176 | 1.02 | 0.895 | 0.956 | 0.97 | 0.917 | 0.878 | 0.766 | 1.1 | 0.838
NCI-H1395 | 1.02 | 1.15 | 0.842 | 0.958 | 0.419 | 0.401 | 0.383 | 0.392 | 0.417 | 1.07 |  | 1.15 | 1.54 | 1.17 | 0.645 | 0.64 | 0.647 | 0.637
NCI-H838 | 1.02 | 0.982 | 0.925 | 1.15 | 0.327 | 0.286 | 0.297 | 0.251 | 0.289 | 1.18 | 1.12 | 1.23 | 1.17 | 1.21 | 0.424 | 0.389 | 0.438 | 0.389
NCI-H520 | 0.944 | 0.92 | 1 | 0.861 | 0.192 |  | 0.183 | 0.237 | 0.132 | 1.02 | 1.08 | 1.21 | 1.13 | 0.959 | 0.253 | 0.238 | 0.279 | 0.282
SW 1573 | 0.826 | 0.76 | 0.759 | 0.914 | 0.647 | 0.494 | 0.477 | 0.588 | 0.514 | 0.904 | 0.857 | 1.01 | 0.95 | 0.848 | 0.882 | 0.778 | 0.736 | 0.0649
201T | 1.08 | 0.991 | 1.02 | 1 | 0.58 | 0.517 | 0.6 | 0.58 | 0.608 | 1.22 | 1.17 | 1.17 | 1.22 | 1.17 | 0.805 | 0.985 | 0.798 | 0.824
NCI-H1437 | 0.986 | 1.02 | 0.911 | 0.71 | 0.313 | 0.39 | 0.375 | 0.217 | 0.362 | 1.14 |  | 1.11 | 1.13 | 1.14 | 1.05 | 0.912 | 0.916 | 0.845
NCI-H1975 | 0.917 | 0.908 | 0.921 | 0.894 | 0.349 | 0.293 | 0.263 | 0.345 | 0.134 | 1.04 | 1.14 | 1.08 | 1.09 | 0.637 | 0.873 | 0.741 | 1.04 | 0.696
RERF-LC-KJ | 0.904 | 0.818 | 0.861 | 0.887 | 0.936 | 0.637 | 0.757 | 0.85 | 0.88 | 0.872 |  | 0.699 | 0.745 | 0.677 | 0.626 | 0.612 | 0.587 | 0.278
